The source of these data is patent publication US12122761B2, “2-azaspiro[3.4]octane derivatives as M4 agonists” (NOVARTIS AG, priority 2019, dated 2024).

This assay has as its target T1, human cloned CHRM3 receptor (M3_CHO cells) (Homo sapiens, UniProt P20309).
T1 construct: expressed in transfected cells; host or cells: CHO-K1
As to the kind of experiment: CHRM3 Ca++ Flux Assay (agonist mode, FDSS 7000EX). To be noted: for Emax / M3 FDSS PA: Percent Activity measured to EC100 of Carbachol; for Emax: read-out: M3 FDSS PA; for EC50: agonist mode, geometric mean if tested more than once, read-out: M3 FDSS EC50. It counts as cell-based. How it is done:
The above examples were characterized by measuring the intracellular mobilization of Ca++ ions caused by signaling events mediated by the receptor. The Intra-cellular Calcium flux levels were captured by the highly sensitive Ca++ indicator, Calcium Assay Kit (BD Biosciences, Catalog Number 640178). The fluorescent activity from all receptors were monitored by the fluorescent imager, FDSS 7000EX (Hamamatsu) over a span of 3 minutes.
CHO-K1 cells stably expressing the human cloned CHRM3 receptor (M3_CHO cells) were grown and maintained in a monolayer culture with F12/HAM (Life Technologies) supplemented with 10% Fetal Bovine Serum, 1× Pen-Strep, and 0.4 mg/mL Geneticin in a humidified atmosphere (5% CO2) at 37° C. The cultures were grown to 80-9 0% confluency in T150 flasks (Corning) and washed with 1×DPBS and lifted with 0.05% Trypsin (Life Technologies). The cells were then spun (1K rpm, 3 minutes) and frozen using Recovery Cell Culture Freezing Media (Gibco Technologies). Cells were stored in liquid nitrogen and thawed a day before the assay. A similar procedure was used for cells stably expressing the human cloned CHRM5 receptor (M5_CHO).
Prior to the day of the assay, stable M3_CHO or M5_CHO cells were thawed and plated on Greiner 384 well black TC treated plates at 12K cells/well in F12/DMEM supplemented with 10% FBS (Hyclone) and kept overnight in a humidified atmosphere (5% CO2) at 37° C. The next day, cells were loaded with Ca^++ dye (BD Biosciences) using Loading Buffer (HBSS +Ca/+Mg, 20 mM HEPES, 2.5 mM Probenecid) and placed back in cell incubator for a minimum of 1 hour. After incubation, the dye was replaced with Assay Buffer (HBSS −Ca/−Mg, 20 mM HEPES, 2.5 mM Probenecid) and kept at room temperature in the dark before running on cell imager. The FDSS 7000EX (Hamamatsu) was used to acquire Ca^++ traces from cells treated with 11 point dose response of compounds in triplicate in order to generate dose response curves in agonist mode. All compounds were serially diluted in DMSO then prepared in Assay Buffer for Ca^++ flux studies. The dose response curves were generated from the average of triplicate wells obtained from each data point and used a non-linear regression of four parameter dose response algorithm. The Percent Activity (PA) was measured to EC100 of Carbachol.

T1 sequence (P20309 whole entry): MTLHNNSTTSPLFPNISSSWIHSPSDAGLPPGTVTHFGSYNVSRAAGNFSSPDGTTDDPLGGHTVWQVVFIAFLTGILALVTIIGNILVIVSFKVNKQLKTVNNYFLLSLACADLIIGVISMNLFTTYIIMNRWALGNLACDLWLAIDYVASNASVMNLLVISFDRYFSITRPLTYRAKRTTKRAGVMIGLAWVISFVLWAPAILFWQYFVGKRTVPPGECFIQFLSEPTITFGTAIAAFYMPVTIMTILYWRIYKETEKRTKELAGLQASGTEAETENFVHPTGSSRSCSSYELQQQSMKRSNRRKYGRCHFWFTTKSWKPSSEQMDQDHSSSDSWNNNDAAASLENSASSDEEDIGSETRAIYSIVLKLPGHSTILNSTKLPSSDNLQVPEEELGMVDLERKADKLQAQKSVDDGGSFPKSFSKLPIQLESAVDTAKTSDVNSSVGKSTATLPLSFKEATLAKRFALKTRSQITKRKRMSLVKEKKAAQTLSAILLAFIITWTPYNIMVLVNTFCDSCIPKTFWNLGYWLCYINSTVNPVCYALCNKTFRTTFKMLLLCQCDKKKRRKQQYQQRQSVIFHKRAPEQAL

With `c1ccc(C2CCN([C@@H]3CCC4(C3)CN(c3nnco3)C4)CC2)c(OC[C@H]2COCCO2)c1` [Example 1C, 2-((R)-6-(4-(2-(((R)-1,4-dioxan-2-yl)methoxy)phenyl)piperidin-1-yl)-2-azaspiro[3.4]octan-2-yl)-1,3,4-oxadiazole], the Emax turned out to be 0% and the EC50 is more than 25 µM.

For `O=C(N1CC2(CC[C@@H](N3CCC(c4ccccc4OCCC(F)(F)F)CC3)C2)C1)C1(F)CC1` (single isomer, unassigned) [Example 7AA, (R)-(1-fluorocyclopropyl)(6-(4-(2-(3,3,3-trifluoropropoxy)phenyl)piperidin-1-yl)-2-azaspiro[3.4]octan-2-yl)methanone or (S)-(1-fluorocyclopropyl)(6-(4-(2-(3,3,3-trifluoropropoxy)phenyl)piperidin-1-yl)-2-azaspiro[3.4]octan-2-yl)methanone], the “M3 FDSS PA” value was determined as 0% and the EC50 was more than 25 µM.

In the case of `Fc1ccc(C2CCOCC2)c(C2CCN([C@@H]3CCC4(C3)CN(c3cncnc3)C4)CC2)c1` (single isomer, unassigned) [Example 10D, (R)-6-(4-(5-fluoro-2-(tetrahydro-2H-pyran-4-yl)phenyl)piperidin-1-yl)-2-(pyrimidin-5-yl)-2-azaspiro[3.4]octane or (S)-6-(4-(5-fluoro-2-(tetrahydro-2H-pyran-4-yl)phenyl)piperidin-1-yl)-2-(pyrimidin-5-yl)-2-azaspiro[3.4]octane], the “M3 FDSS PA” value is 0% and the EC50 was more than 25 µM.

`Cc1nc(COc2ccccc2C2CCN([C@@H]3CCC4(C3)CN(C(=O)C3(F)CC3)C4)CC2)no1` (single isomer, unassigned) [Example 7Z, (R)-(1-fluorocyclopropyl)(6-(4-(2-((5-methyl-1,2,4-oxadiazol-3-yl)methoxy)phenyl)piperidin-1-yl)-2-azaspiro[3.4]octan-2-yl)methanone or (S)-(1-fluorocyclopropyl)(6-(4-(2-((5-methyl-1,2,4-oxadiazol-3-yl)methoxy)phenyl)piperidin-1-yl)-2-azaspiro[3.4]octan-2-yl)methanone]: the “M3 FDSS PA” value was 0% and the concentration for a half-maximal effect (EC50) is more than 25 µM.

With `O=C(N1CC2(CC[C@@H](N3CCC(c4cc(F)ccc4OC4CCOCC4)CC3)C2)C1)C1(F)CC1` (single isomer, unassigned) [Example 9D, (R)-(6-(4-(5-fluoro-2-((tetrahydro-2H-pyran-4-yl)oxy)phenyl)piperidin-1-yl)-2-azaspiro[3.4]octan-2-yl)(1-fluorocyclopropyl)methanone or (S)-(6-(4-(5-fluoro-2-((tetrahydro-2H-pyran-4-yl)oxy)phenyl)piperidin-1-yl)-2-azaspiro[3.4]octan-2-yl)(1-fluorocyclopropyl)methanone], the “M3 FDSS PA” value was 0% and the EC50 is more than 25 µM.

Regarding `O=C(N1CC2(CC[C@@H](N3CCC(c4ccccc4OC4CC5(COC5)C4)CC3)C2)C1)C1(F)CC1` (single isomer, unassigned) [Example 11D, (R)-(6-(4-(2-((2-oxaspiro[3.3]heptan-6-yl)oxy)phenyl)piperidin-1-yl)-2-azaspiro[3.4]octan-2-yl)(1-fluorocyclopropyl)methanone or (S)-(6-(4-(2-((2-oxaspiro[3.3]heptan-6-yl)oxy)phenyl)piperidin-1-yl)-2-azaspiro[3.4]octan-2-yl)(1-fluorocyclopropyl)methanone], the “M3 FDSS PA” value was 0% and the EC50 is more than 25 µM.

Regarding `COc1ccccc1C1CCN([C@@H]2CCC3(C2)CN(c2nccnc2C)C3)CC1` [Example 5J, (R)-6-(4-(2-methoxyphenyl)piperidin-1-yl)-2-(3-methylpyrazin-2-yl)-2-azaspiro[3.4]octane], the Emax amounted to 0% and the EC50 was more than 25 µM.

`O=C(N1CC2(CC[C@@H](N3CCC(c4cc(F)ccc4C4(O)CCOCC4)CC3)C2)C1)C1(F)CC1` (single isomer, unassigned) [Example 9I, (R)-(6-(4-(5-fluoro-2-(4-hydroxytetrahydro-2H-pyran-4-yl)phenyl)piperidin-1-yl)-2-azaspiro[3.4]octan-2-yl)(1-fluorocyclopropyl)methanone or (S)-(6-(4-(5-fluoro-2-(4-hydroxytetrahydro-2H-pyran-4-yl)phenyl)piperidin-1-yl)-2-azaspiro[3.4]octan-2-yl)(1-fluorocyclopropyl)methanone]: the “M3 FDSS PA” value worked out at 0% and the EC50 was more than 25 µM.

On to `O=C(N1CC2(CC[C@@H](N3CCC(c4ccccc4OCc4ncccn4)CC3)C2)C1)C1(F)CC1` (single isomer, unassigned) [Example 7M, (R)-(1-fluorocyclopropyl)(6-(4-(2-(pyrimidin-2-ylmethoxy)phenyl)piperidin-1-yl)-2-azaspiro[3.4]octan-2-yl)methanone or (S)-(1-fluorocyclopropyl)(6-(4-(2-(pyrimidin-2-ylmethoxy)phenyl)piperidin-1-yl)-2-azaspiro[3.4]octan-2-yl)methanone], for which the “M3 FDSS PA” value is on record as 0% and the EC50 is more than 25 µM.

On to `Fc1cncc(N2CC3(CC[C@@H](N4CCC(c5cc(F)ccc5OC5CCOCC5)CC4)C3)C2)c1` (single isomer, unassigned) [Example 10A, (R)-6-(4-(5-fluoro-2-((tetrahydro-2H-pyran-4-yl)oxy)phenyl)piperidin-1-yl)-2-(5-fluoropyridin-3-yl)-2-azaspiro[3.4]octane or (S)-6-(4-(5-fluoro-2-((tetrahydro-2H-pyran-4-yl)oxy)phenyl)piperidin-1-yl)-2-(5-fluoropyridin-3-yl)-2-azaspiro[3.4]octane], for which the “M3 FDSS PA” value is on record as 0% and the half-maximal effective concentration (EC50) is more than 25 µM.

On to `c1ccc(C2CCN([C@@H]3CCC4(C3)CN(c3ncncn3)C4)CC2)c(OCC2CCOCC2)c1` [Example 5Q, (R)-6-(4-(2-((tetrahydro-2H-pyran-4-yl)methoxy)phenyl)piperidin-1-yl)-2-(1,3,5-triazin-2-yl)-2-azaspiro[3.4]octane], for which the Emax worked out at 0% and the EC50 was more than 25 µM.

Take `O=C(N1CC2(CC[C@@H](N3CCC(c4cc(F)ccc4OC4CC5(COC5)C4)CC3)C2)C1)C1(F)CC1` (single isomer, unassigned) [Example 11B, (R)-(6-(4-(2-((2-oxaspiro[3.3]heptan-6-yl)oxy)-5-fluorophenyl)piperidin-1-yl)-2-azaspiro[3.4]octan-2-yl)(1-fluorocyclopropyl)methanone or (S)-(6-(4-(2-((2-oxaspiro[3.3]heptan-6-yl)oxy)-5-fluorophenyl)piperidin-1-yl)-2-azaspiro[3.4]octan-2-yl)(1-fluorocyclopropyl)methanone]: the “M3 FDSS PA” value is on record as 0% and the EC50 is more than 25 µM.

As for `O=C(N1CC2(CC[C@@H](N3CCC(c4cc(F)ccc4C4CCOCC4)CC3)C2)C1)C1(F)CC1` (single isomer, unassigned) [Example 9L, (R)-(6-(4-(5-fluoro-2-(tetrahydro-2H-pyran-4-yl)phenyl)piperidin-1-yl)-2-azaspiro[3.4]octan-2-yl)(1-fluorocyclopropyl)methanone or (S)-(6-(4-(5-fluoro-2-(tetrahydro-2H-pyran-4-yl)phenyl)piperidin-1-yl)-2-azaspiro[3.4]octan-2-yl)(1-fluorocyclopropyl)methanone], the “M3 FDSS PA” value is reported as 0% and the 50% effective concentration (EC50) was more than 25 µM.

For the compound `COc1ccccc1C1CCN([C@@H]2CCC3(C2)CN(c2cccnc2)C3)CC1` [Example 5K, (R)-6-(4-(2-methoxyphenyl)piperidin-1-yl)-2-(pyridin-3-yl)-2-azaspiro[3.4]octane], the Emax stood at 0% and the EC50 is more than 25 µM.

Turning to `COc1ccc(Cl)cc1C1CCN([C@H]2CCC3(C2)CN(C(=O)C2(F)CC2)C3)CC1` (single isomer, unassigned) [Example 8A, (S)-(6-(4-(5-chloro-2-methoxyphenyl)piperidin-1-yl)-2-azaspiro[3.4]octan-2-yl)(1-fluorocyclopropyl)methanone or (R)-(6-(4-(5-chloro-2-methoxyphenyl)piperidin-1-yl)-2-azaspiro[3.4]octan-2-yl)(1-fluorocyclopropyl)methanone], the “M3 FDSS PA” value amounted to 0% and the EC50 was more than 25 µM.

By EC50 is commonly meant the midpoint of the concentration-response curve.
